This is an account of results in patent publication US10125135B2, “Chemical compounds” (AstraZeneca AB, priority 2016, dated 2018).

Structures are written as SMILES. Values after ≈ are worked out from the molar mass of the structure shown.

Data set [1] in a line: Human plasma protein binding, equilibrium dialysis (RED). It counts as in vitro ADME. The conditions noted are these: dialysis for 18 hours. The method, then: Human Plasma Protein Binding
The automated equilibrium dialysis assay in human plasma uses the RED (Rapid Equilibrium Dialysis) Device and sample handling. The assay generally runs over two to three days including delivery of results. After dialysis for 18 hours, plasma and buffer samples are prepared for analysis by liquid chromatography and mass spectrometry. Samples are generally tested in singlicates and quantified by LC/MSMS by using a 7-point calibration curve in plasma. The compounds are pooled together in plasma pools up to 10 compounds. Three reference compounds are used in each run, Propranolol, Metoprolol and Warfarin. Warfarin is used as a control in each pool and Propranolol and Metoprolol are placed randomly in each run. An in-house Excel macro is used for preparation of files for the robot and the mass spectrometer and also used for the calculations of fraction unbound (fu %) in plasma.
On the technique in general: In equilibrium dialysis only unbound substance equilibrates across the membrane.

Data set [2] in a line: Thermodynamic solubility, shake-flask. Conditions: thermodynamic from solid; aqueous phosphate buffer pH 7.4, 24 hours at 25° C. It counts as physicochemical. The method, then: The thermodynamic solubility of a research compound is measured under standard conditions. It is a shake-flask approach that uses 10 mM DMSO solutions which are supplied from the Compound Managements liquid store and is a high throughput method. The dried compounds are equilibrated in an aqueous phosphate buffer (pH 7.4) for 24 hours at 25° C., the portion with the dissolved compound is then separated from the remains. The solutions are analyzed and quantified using UPLC/MS/MS, QC-samples are incorporated in each assay-run to ensure the quality of the assay.

A short description of data set [3]: logD shake flask, 1-octanol/aqueous buffer. Type of data set: physicochemical. The conditions noted are these: pH 7.4. The text has this: The lipophilicity of a drug is an important physical property which may influence many biological and metabolic properties of a compound. The distribution coefficient between 1-octanol and aqueous buffer, Log DO/W, at pH 7.4, is the most commonly used measurement of the lipophilicity of a compound. The current method for measurement of Log DO/W is based on the traditional shake flask technique, but with the modification of measuring compounds in mixtures of ten at a time using UPLC with quantitative mass spectrometry (MS) as a method to measure the relative octanol and aqueous concentrations. […] An additional QC sample Caffeine, with low Log D, are used and randomly placed in all runs. The method has been thoroughly validated against the previous shake flask methodologies.

The target of data set [4] is ERα receptor in MCF-7 human ductal carcinoma breast cell line (Homo sapiens (Human), UniProt P03372). Description: MCF-7 ER down regulation assay (immuno-fluorescence). It counts as cell-based. The conditions noted are these: MCF-7 cells; for DC50: 18-22 hours incubation, read-out: ER down regulation IC50 value. The method, then: MCF-7 ER Down Regulation Assay
The ability of compounds to down-regulate Estrogen Receptor (ER) numbers was assessed in a cell based immuno-fluorescence assay using the MCF-7 human ductal carcinoma breast cell line. MCF-7 cells were revived directly from a cryovial (approx 5×10^6 cells) in Assay Medium (phenol red free Dulbecco's Modified Eagle's medium (DMEM) (Sigma D5921) containing 2mM L-Glutamine and 5% (v/v) Charcoal/Dextran treated foetal calf serum. Cells were syringed once using a sterile 18 G×1.5 inch (1.2×40 mm) broad gauge needle and cell density was measured using a Coulter Counter (Beckman). Cells were further diluted in Assay Medium to a density of 3.75×10^4 cells per mL and 40 μL per well added to transparent bottomed, black, tissue culture treated 384 well plates (Costar, No. 3712) using a Thermo Scientific Matrix WellMate or Thermo Multidrop. Following cell seeding, plates were incubated overnight at 37° C., 5% CO2 (Liconic carousel incubator). Test data was generated using the LabCyte Echo™ model 555 compound reformatter which is part of an automated workcell (Integrated Echo 2 workcell). 10 mM compound stock solutions of the test compounds were used to generate a 384 well compound dosing plate (Labcyte P-05525-CV1). […] 40 μΛ of DMSO added to wells in row P on the source plate allow for DMSO normalisation across the dose range. To dose the control wells 40 μL of DMSO was added to row O1 and 40 μL of 100 μM fulvestrant in DMSO was added to row O3 on the compound source plate. […] Compounds were dispensed onto the cell plates with a compound source plate prepared as above producing a 12 pt duplicate 3 μM to 3 pM dose range with 3 fold dilutions and one final 10 fold dilution using the Integrated Echo 2 workcell. […] Cells were fixed at room temperature for 20 mins before being washed two times with 250 μL PBS/Proclin (PBS with a Biocide preservative) using a BioTek platewasher, 40 μL of PBS/Proclin was then added to all wells and the plates stored at 4° C. The fixing method described above was carried out on the Integrated Echo 2 workcell. Immunostaining was performed using an automated AutoElisa workcell. The PBS/Proclin was aspirated from all wells and the cells permeabilised with 40 μL PBS containing 0.5% Tween™ 20 (v/v) for 1 hour at room temperature. The plates were washed three times in 250 μL of PBS/0.05% (v/v) Tween 20 with Proclin (PBST with a Biocide preservative) and then 20 μL of ERα (SP1) Rabbit monoclonal antibody (Thermofisher) 1:1000 in PBS/Tween™/3% (w/v) Bovine Serum Albumin was added. The plates were incubated overnight at 4° C. (Liconic carousel incubator) and then washed three times in 250 μL of PBS/0.05% (v/v) Tween™ 20 with Proclin (PBST). The plates were then incubated with 20 μL/well of a goat anti-rabbit IgG AlexaFluor 594 or goat anti-rabbit AlexaFluor 488 antibody (Molecular Probes) with Hoechst at 1:5000 in PBS/Tween™/3% (w/v) Bovine Serum Albumin for lhour at room temperature. The plates were then washed three times in 250 μL of PBS/0.05% (v/v) Tween™ 20 with Proclin (PBST with a Biocide preservative). 20 μL of PBS was added to each well and the plates covered with a black plate seal and stored at 4° C. before being read. Plates were read using a Cellomics Arrayscan reading the 594 nm (24 hr time point) or 488 nm (5 hr timepoint) fluorescence to measure the ERα receptor level in each well. The mean total intensity was normalized for cell number giving the total intensity per cell.

A short description of data set [5]: Human hepatocyte assay (metabolic stability). Conditions: human hepatocytes, 37° C., 1.0×10^6 viable cells/mL; read-out: Clint (in vitro intrinsic clearance). It counts as in vitro ADME. The method, then: The metabolic stability of compounds in human hepatocytes was assessed using the following protocol: • 1. Prepare 10 mM stock solutions of compound and control compounds in appropriate solvent (DMSO). Place incubation medium (L-15Medium) in a 37° C. water bath, and allow warming for at least 15 minutes prior to use. • 2. Add 80 μL of acetonitrile to each well of the 96-well deep well plate (quenching plate). • 3. In a new 96-well plate, dilute the 10 mM test compounds and the control compounds to 100 μM by combining 198 μL of acetonitrile and 2 μL of 10 mM stock. • 4. Remove a vial of cryopreserved (less than −150° C.) human hepatocytes (LiverPool™ 10 Donor Human hepatocytes obtained from Celsis IVT. Chicago, Ill. (Product No. S01205)) from storage, ensuring that vials remain at cryogenic temperatures until thawing process ensues. As quickly as possible, thaw the cells by placing the vial in a 37° C. water bath and gently shaking the vials. Vials should remain in water bath until all ice crystals have dissolved and are no longer visible. After thawing is completed, spray vial with 70% ethanol, transfer the vial to a bio-safety cabinet. • 5. Open the vial and pour the contents into the 50 mL conical tube containing thawing medium. Place the 50 mL conical tube into a centrifuge and spin at 100 g for 10 minutes. […] Using Cellometer® Vision, count cells and determine the viable cell density. Cells with poor viability (<80% viability) are not acceptable for use. Dilute cells with incubation medium to a working cell density of 1.0×10^6 viable cells/mL. • 7. Transfer 247.5 μL of hepatocytes into each well of a 96-well cell culture plate. Place the plate on Eppendorf Thermomixer Comfort plate shaker to allow the hepatocytes to warm for 10 minutes. • 8. Add 2.5 μL of 100 μM test compound or control compounds into an incubation well containing cells, mix to achieve a homogenous suspension at 0.5 min, which when achieved, will define the 0.5 min time point. At the 0.5 min time, transfer 20 μL incubated mixture to wells in a “Quenching plate” followed by vortexing. • 9. Incubate the plate at 37° C. at 900 rpm on an Eppendorf Thermomixer Comfort plate shaker. At 5, 15, 30, 45, 60, 80, 100 and 120 min, mix the incubation system and transfer samples of 20 μL incubated mixture at each time point to wells in a separate “Quenching plate” followed by vortexing. • 10. Centrifuge the quenching plates for 20 minutes at 4,000 rpm. 4 different compounds are pooled into one cassette and used for LC/MS/MS analysis.
All calculations are carried out using Microsoft Excel. Peak areas are determined from extracted ion chromatograms. In vitro intrinsic clearance (in vitro Clint, in μL/min/10^6 cells) of parent compound is determined by regression analysis of the Ln percent parent disappearance vs. time curve. The in vitro intrinsic clearance (in vitro Clint, in μL/min/10^6 cells) is determined from the slope value using the following equation and is shown in Table C:
V=incubation volume (0.25 mL);
N=number of hepatocytes per well (0.25×10 ^6 cells).

Chain of ERα receptor in MCF-7 human ductal carcinoma breast cell line (P03372 whole entry): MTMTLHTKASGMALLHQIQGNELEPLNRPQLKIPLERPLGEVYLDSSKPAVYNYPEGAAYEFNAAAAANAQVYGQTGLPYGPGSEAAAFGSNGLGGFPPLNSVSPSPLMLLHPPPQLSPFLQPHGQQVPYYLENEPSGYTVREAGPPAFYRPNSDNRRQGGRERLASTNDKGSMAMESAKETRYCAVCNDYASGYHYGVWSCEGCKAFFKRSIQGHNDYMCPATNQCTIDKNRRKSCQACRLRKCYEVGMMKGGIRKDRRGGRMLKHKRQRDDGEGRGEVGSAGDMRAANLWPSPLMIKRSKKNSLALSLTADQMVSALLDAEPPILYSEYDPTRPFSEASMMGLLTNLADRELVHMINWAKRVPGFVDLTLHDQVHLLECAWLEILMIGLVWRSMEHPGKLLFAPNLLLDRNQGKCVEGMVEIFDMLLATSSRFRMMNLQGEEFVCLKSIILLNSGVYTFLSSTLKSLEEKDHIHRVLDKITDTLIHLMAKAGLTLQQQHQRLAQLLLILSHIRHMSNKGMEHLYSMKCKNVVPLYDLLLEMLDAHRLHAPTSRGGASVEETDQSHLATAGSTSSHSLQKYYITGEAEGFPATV

Consider `C[C@@H]1Cc2c(ccc3[nH]ncc23)[C@@H](c2ncc(OCCN3CC(CF)C3)cc2F)N1CC(F)(F)F` [Example 50, (6S,8R)-6-(3-fluoro-5-(2-(3-(fluoromethyl)azetidin-1-yl)ethoxy)pyridin-2-yl)-8-methyl-7-(2,2,2-trifluoroethyl)-6,7,8,9-tetrahydro-3H-pyrazolo[4,3-f]isoquinoline], for which the “Human plasma protein binding (% free)” value in data set [1] came to 20 % free. In addition, in data set [2], the solubility at 24 h stood at 1000 µM (≈ 495 µg/mL). In data set [3], this compound registered a logD of 2.8. In data set [4], the DC50 was determined as 0.5 nM.

For the compound `C[C@@H]1Cc2c(ccc3[nH]ncc23)[C@@H](c2c(F)cc(OCCN3CC(C(F)F)C3)cc2F)N1CC(C)(C)F` [Example 38, (6S,8R)-6-(4-(2-(3-(difluoromethyl)azetidin-1-yl)ethoxy)-2,6-difluorophenyl)-7-(2-fluoro-2-methylpropyl)-8-methyl-6,7,8,9-tetrahydro-3H-pyrazolo[4,3-f]isoquinoline], the hepatocyte CLint at 1 µM in data set [5] was 15 µL/min/1e6 cells. In addition, the DC50 in data set [4] worked out at 0.26 nM.

For the compound `CC(C)(F)CN1[C@H](c2c(F)cc(OCCN3CC(CF)C3)cc2F)c2ccc3[nH]ncc3c2C[C@H]1C(F)F` [Example 3, (6S,8S)-6-(2,6-difluoro-4-(2-(3-(fluoromethyl)azetidin-1-yl)ethoxy)phenyl)-8-(difluoromethyl)-7-(2-fluoro-2-methylpropyl)-6,7,8,9-tetrahydro-3H-pyrazolo[4,3-f]isoquinoline], the hepatocyte CLint at 1 µM in data set [5] was determined as 16 µL/min/1e6 cells. Further, the DC50 in data set [4] was found to be 0.16 nM.

For `CC(C)CN1[C@H](c2ccc(OCCN3CC(CF)C3)cc2)c2ccc3[nH]ncc3c2C[C@H]1C` [Example 28, (6R,8R)-6-(4-(2-(3-(fluoromethyl)azetidin-1-yl)ethoxy)phenyl)-7-isobutyl-8-methyl-6,7,8,9-tetrahydro-3H-pyrazolo[4,3-f]isoquinoline], in data set [5], the hepatocyte CLint at 1 µM amounted to 8 µL/min/1e6 cells. Further, in data set [4], the DC50 amounted to 0.14 nM.

For the compound `C[C@@H]1Cc2c(ccc3[nH]ncc23)[C@@](C)(c2ccc(OCCN3CC(CF)C3)cc2)N1CC1(F)COC1` [Example 32, (6R,8R)-6-(4-(2-(3-(fluoromethyl)azetidin-1-yl)ethoxy)phenyl)-7-((3-fluorooxetan-3-yl)methyl)-6,8-dimethyl-6,7,8,9-tetrahydro-3H-pyrazolo[4,3-f]isoquinoline], in data set [5], the hepatocyte CLint at 1 µM stood at 29 µL/min/1e6 cells. In addition, the DC50 in data set [4] amounted to 0.076 nM.

`C[C@@H]1Cc2c(ccc3[nH]ncc23)[C@@H](c2c(F)cc(NCCN3CC(CF)C3)cc2F)N1CC(C)(C)F` [Example 47, 3,5-difluoro-4-((6S,8R)-7-(2-fluoro-2-methylpropyl)-8-methyl-6,7,8,9-tetrahydro-3H-pyrazolo[4,3-f]isoquinolin-6-yl)-N-(2-(3-(fluoromethyl)azetidin-1-yl)ethyl)aniline]: the hepatocyte CLint at 1 µM in data set [5] stood at 8 µL/min/1e6 cells. For the same compound, the DC50 in data set [4] was 0.28 nM. Moreover, the “% downregulation (in brackets) in ER down regulation assay” value in data set [4] (>90% unless otherwise stated) was found to be 86%.

Broadly, the solubility is the dissolved amount per volume that the medium holds. A high value points to much dissolved substance. A word on the logD: it is lipophilicity at a set pH, counting ionised and neutral species.
